Measurements taken from patent US8420777B2, “Compounds that inhibit Hsp90 protein-protein interactions with IAP proteins” (University of Massachusetts, priority 2004, dated 2013).
Square brackets hold non-standard residues; d marks the D form. Ends that are not written are not given here.

Columns and labels:
[1] = tested on: normal lung fibroblast LU18 cells; experiment: Trypan blue exclusion in normal cells; format: cell-based; settings: 150 μM, 24 hours
PC3 tumors = experiment: Peptide accumulation within the tumor mass, fluorescence microscopy; format: in vivo, SCID/beige mice; settings: intraperitoneally, one hour after administration
Experimental: To determine whether the survivin peptidomimetic accumulates intracellularly in vivo, animals carrying flank PC3 tumors were injected intraperitoneally with saline, or the cell-permeable retro-inverso K79-L87 survivin peptide P3. One hour after administration, the animals were sacrificed, and the tumors were carefully excised and analyzed for peptide accumulation within the tumor mass by fluorescence microscopy.

Hsp 27 = target: T1, Hsp 27 (Homo sapiens, UniProt P04792); experiment: Affinity chromatography of Raji cell extracts on Survivin peptide column; format: binding
T1 construct: used to fractionate Raji cell extracts; endogenous in cells; host or cells: Raji B lymphoma cells
Text: (§1) A Survivin Ile^74-Leu^87 peptide (SEQ ID NO:4) containing a binding site for Hsp90 was immobilized onto a Sulfolink™ Coupling Gel (Pierce, Rockport, Ill.), and used to fractionate Raji cell extracts. Proteins were identified in the flow trough (FT) or eluate (E) by Western blotting with the indicated antibodies. Hsp90 and Hsp70 clearly bound the Survivin peptide including residues Ile^74-Leu^87. The anti-Hsp70 antibodies were obtained from Abcam, Cambridge, Mass. (cat. No. ab6535).

Hsp70 = experiment: as above; format: binding; settings: eluate by Western blotting
Text: as §1

Hsp90 = experiment: as above; format: binding; settings: eluate by Western blotting
Text: as §1

[2] = tested on: HeLa, MDA-MB231, MCF-7, PANC-1 tumor cell lines; experiment: MTT cell viability with retro-inverso peptides; format: cell-based; settings: increasing concentrations, 24 hours
Experimental: For determination of apoptosis by hypodiploid DNA content, various tumor cell lines were incubated with increasing concentrations of the cell permeable control scrambled (SEQ ID NO:25) or Survivin peptide (SEQ ID NO:19), harvested after 24 hours (floaters plus attached cells) fixed in 70% ethanol, and stained with 10 μg/ml propidium iodide plus 100 μg/ml RNAse A and 0.05% Triton™ X-100 in PBS, pH 7.4. Cultures were analyzed for DNA content by flow cytometry. For colorimetric quantification of cell viability, an MTT assay was used. […] Decrease in cell viability was analyzed for loss of colorimetric absorption at OD405.
To increase the stability in vivo of the cell permeable Survivin K79-L87 sequence, we synthesized peptidomimetic variants in which the cell penetrating Antennapedia sequence and the Survivin active sequence K79-L87 were synthesized using D-amino acid ([…]) and in the reverse order (inverso sequence). […] To test the ability of the retro-inverso cell permeable sequences to induce apoptosis in cancer cells, a panel of tumor cell lines were analyzed by the cell viability MTT assay after incubation with the indicated increasing concentrations of the P3 (Survivin) or P4 (control) retro-inverso cell permeable peptides.

[3] = tested on: HCT116, HeLa, MCF-7, PANC-1, PC3 tumor cells; experiment: Trypan blue exclusion in tumor cell lines; format: cell-based; settings: 150 μM, 24 hours
Experimental: To study the specificity of the retro-inverso P3 and P4 sequences described in Example 17, we incubated a variety of tumor cell lines with the cell permeable retro-inverso P3 and P4 peptides (150 μM), and stained the cultures after 24 hours by trypan blue (Sigma) exclusion. Cells that fail to exclude the blue dye were cells that lost cell viability and plasma membrane integrity.

T1 sequence (P04792 whole entry): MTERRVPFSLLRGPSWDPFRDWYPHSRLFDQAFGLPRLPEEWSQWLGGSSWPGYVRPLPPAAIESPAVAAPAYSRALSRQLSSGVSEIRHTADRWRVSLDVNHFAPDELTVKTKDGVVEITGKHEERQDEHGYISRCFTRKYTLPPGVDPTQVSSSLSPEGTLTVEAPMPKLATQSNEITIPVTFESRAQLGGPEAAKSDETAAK

## CSCC[C@@H](NC(=O)[C@@H](CCCCN)NC(=O)[C@@H](Cc1c[nH]c2ccccc12)NC(=O)[C@@H](CCCCN)NC(=O)[C@@H](CCCCN)NC(=O)CCCCCNC(=O)CCCC[C@@H]1SC[C@@H]2NC(=O)N[C@@H]21)C(=O)N[C@H](CCCNC(=N)N)C(=O)N[C@H](CCCNC(=N)N)C(=O)N[C@H](CC(N)=O)C(=O)N[C@H](CCC(N)=O)C(=O)N[C@H](Cc1ccccc1)C(=O)N[C@H](Cc1c[nH]c2ccccc12)C(=O)N[C@@H](C(=O)N[C@H](CCCCN)C(=O)N[C@@H](C(=O)N[C@H](CCC(N)=O)C(=O)N[C@H](CCCNC(=N)N)C(=O)N[C@H](CC(C)C)C(=O)N[C@H](Cc1ccccc1)C(=O)N[C@H](C)C(=O)N[C@H](CS)C(=O)NCC(=O)N[C@H](CO)C(=O)N[C@H](CO)C(=O)N[C@H](Cc1c[nH]cn1)C(=O)N[C@H](CCCCN)C(N)=O)C(C)C)C(C)C [P3]
[1]
  viability of normal cells (trypan blue exclusion): neither the Survivin P3 nor the control P4 peptide resulted in decreased viability
PC3 tumors
  intracellular accumulation in tumor cells: showed intracellular fluorescence

## IDDHKKHSSGCAFL [SEQ ID NO:4]
Hsp 27
  Hsp 27 binding to peptide column: did not bind
Hsp70
  Hsp70 binding to peptide column: clearly bound
Hsp90
  Hsp90 binding to peptide column: clearly bound

## KKWKMRRNQFWVIWQRGHSFCALKS-CONH2 ([dK][dK][dW][dK][dM][dR][dR][dN][dQ][dF][dW][dV][dI][dW][dQ][dR]G[dH][dS][dF][dC][dA][dL][dK][dS]-NH2; also: retro-inverso) [P4, retro-inverso control scrambled peptide]
[2]
  cell viability (MTT): no decrease in cell viability
[3]
  tumor cell viability (trypan blue exclusion): did not reduce tumor cell viability
